Measured values: patent US11420958B2, “Aryl and heteroaryl substituted indole compounds” (BRISTOL-MYERS SQUIBB COMPANY, priority 2017, dated 2022)

Legend:
Type in all cases: cell-based
[1] = biological target: human TLR7 (Homo sapiens (Human), UniProt Q9NYK1); assay: TLR7 inhibition reporter assay (HEK-Blue, SEAP); conditions: HEK-Blue cells overexpressing human TLR7, gardiquimod 7.5 μM stimulation
Summary of the method: (§1)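 SEAP read-out via detection medium after 22 h at 37 °C, 5% CO2; percent inhibition relative to agonist-plus-DMSO and known-inhibitor wells. Agonists: TLR7 gardiquimod 7.5 μM, TLR8 R848 15.9 μM, TLR9 ODN2006 5 nM (final). Compound range 0.05 nM–50 μM, 30 min pre-treatment.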

[2] = biological target: human TLR8 (Homo sapiens (Human), UniProt Q9NR97); assay: TLR8 inhibition reporter assay (HEK-Blue, SEAP); conditions: HEK-Blue cells overexpressing human TLR8, R848 15.9 μM stimulation
Chain of human TLR8 (Q9NR97 27-1041): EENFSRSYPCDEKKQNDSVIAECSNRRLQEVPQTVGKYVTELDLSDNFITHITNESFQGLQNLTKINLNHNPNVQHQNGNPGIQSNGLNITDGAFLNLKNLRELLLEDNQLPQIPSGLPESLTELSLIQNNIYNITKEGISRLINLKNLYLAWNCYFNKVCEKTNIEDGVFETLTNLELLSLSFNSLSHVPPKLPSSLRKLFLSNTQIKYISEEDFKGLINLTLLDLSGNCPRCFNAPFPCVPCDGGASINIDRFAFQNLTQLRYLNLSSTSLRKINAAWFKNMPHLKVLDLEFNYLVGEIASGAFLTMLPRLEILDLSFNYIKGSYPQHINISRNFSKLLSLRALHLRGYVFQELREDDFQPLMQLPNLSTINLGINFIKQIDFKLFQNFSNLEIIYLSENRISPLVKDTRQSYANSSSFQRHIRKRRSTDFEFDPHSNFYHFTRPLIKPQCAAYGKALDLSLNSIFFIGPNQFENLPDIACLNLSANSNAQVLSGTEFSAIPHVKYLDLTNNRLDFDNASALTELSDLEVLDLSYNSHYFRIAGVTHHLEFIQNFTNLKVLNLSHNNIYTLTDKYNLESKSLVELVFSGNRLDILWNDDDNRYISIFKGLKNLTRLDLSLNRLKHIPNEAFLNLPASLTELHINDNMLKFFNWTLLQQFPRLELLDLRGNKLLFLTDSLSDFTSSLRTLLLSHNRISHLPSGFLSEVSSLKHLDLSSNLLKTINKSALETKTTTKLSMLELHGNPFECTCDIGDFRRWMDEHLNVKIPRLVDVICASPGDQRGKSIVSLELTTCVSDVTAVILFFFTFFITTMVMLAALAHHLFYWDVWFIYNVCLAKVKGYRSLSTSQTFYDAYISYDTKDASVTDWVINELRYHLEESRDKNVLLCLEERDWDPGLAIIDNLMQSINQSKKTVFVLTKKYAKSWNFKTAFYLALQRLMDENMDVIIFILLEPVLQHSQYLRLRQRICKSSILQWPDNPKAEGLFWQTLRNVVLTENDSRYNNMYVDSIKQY
Summary of the method: as §1

[3] = biological target: human TLR9 (Homo sapiens (Human), UniProt Q9NR96); assay: TLR9 inhibition reporter assay (HEK-Blue, SEAP); conditions: HEK-Blue cells overexpressing human TLR9, ODN2006 5 nM stimulation
Chain of human TLR9 (Q9NR96 26-1032): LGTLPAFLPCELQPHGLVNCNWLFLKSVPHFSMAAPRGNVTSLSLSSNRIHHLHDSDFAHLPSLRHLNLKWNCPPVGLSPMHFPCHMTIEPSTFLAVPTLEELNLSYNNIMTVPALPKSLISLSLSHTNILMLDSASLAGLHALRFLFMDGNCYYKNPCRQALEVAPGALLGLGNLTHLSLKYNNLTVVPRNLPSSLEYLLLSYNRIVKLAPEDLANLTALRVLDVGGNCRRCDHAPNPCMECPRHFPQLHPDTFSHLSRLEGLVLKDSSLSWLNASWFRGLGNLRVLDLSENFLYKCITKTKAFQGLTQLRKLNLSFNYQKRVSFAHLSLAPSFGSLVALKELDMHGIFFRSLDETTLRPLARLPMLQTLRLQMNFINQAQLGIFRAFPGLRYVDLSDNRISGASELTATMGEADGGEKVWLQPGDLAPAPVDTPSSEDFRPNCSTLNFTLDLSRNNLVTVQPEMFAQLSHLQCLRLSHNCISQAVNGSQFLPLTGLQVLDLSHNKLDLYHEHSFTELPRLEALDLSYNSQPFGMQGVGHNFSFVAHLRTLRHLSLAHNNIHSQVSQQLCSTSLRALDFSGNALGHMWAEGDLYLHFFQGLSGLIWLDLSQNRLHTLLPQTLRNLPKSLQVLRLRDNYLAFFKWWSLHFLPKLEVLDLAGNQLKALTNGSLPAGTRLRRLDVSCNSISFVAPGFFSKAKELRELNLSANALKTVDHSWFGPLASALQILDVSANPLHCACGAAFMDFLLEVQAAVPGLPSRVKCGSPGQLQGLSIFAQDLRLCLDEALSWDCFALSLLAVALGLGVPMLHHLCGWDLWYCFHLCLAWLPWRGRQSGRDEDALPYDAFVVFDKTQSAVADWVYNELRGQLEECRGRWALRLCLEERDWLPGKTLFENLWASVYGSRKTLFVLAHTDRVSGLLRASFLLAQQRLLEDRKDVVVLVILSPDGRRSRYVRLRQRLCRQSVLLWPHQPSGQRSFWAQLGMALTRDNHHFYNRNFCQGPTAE
Summary of the method: as §1

Chain of human TLR7 (Q9NYK1 27-1049): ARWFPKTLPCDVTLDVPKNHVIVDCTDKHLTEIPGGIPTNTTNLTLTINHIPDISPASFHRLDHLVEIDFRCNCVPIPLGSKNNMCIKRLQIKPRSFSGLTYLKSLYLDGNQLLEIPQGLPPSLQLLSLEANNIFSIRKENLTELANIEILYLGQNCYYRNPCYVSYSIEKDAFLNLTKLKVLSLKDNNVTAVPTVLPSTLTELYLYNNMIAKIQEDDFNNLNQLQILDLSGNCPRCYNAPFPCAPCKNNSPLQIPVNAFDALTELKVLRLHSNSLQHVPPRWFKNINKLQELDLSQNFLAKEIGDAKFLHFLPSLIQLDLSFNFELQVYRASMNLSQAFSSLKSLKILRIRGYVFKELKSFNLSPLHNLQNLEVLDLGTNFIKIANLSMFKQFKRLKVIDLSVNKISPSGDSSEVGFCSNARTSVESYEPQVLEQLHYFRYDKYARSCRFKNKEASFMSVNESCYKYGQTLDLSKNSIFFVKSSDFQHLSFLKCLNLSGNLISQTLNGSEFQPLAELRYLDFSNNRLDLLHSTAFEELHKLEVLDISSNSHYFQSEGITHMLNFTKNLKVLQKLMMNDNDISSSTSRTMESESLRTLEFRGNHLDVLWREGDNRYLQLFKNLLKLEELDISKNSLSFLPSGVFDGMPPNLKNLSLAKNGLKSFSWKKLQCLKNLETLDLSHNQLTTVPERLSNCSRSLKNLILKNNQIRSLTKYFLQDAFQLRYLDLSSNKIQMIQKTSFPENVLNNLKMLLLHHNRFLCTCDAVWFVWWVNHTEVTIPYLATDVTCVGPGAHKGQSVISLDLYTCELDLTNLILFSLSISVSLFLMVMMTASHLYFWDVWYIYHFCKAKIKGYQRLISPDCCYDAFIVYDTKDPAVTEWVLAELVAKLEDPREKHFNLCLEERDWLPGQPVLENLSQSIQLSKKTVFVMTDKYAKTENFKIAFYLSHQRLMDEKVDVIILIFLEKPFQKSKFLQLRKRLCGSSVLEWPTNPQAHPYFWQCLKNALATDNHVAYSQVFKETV

| IC50 [1] [nM] | IC50 [2] [nM] | IC50 [3] [nM] | SMILES |
| --- | --- | --- | --- |
| 53 | 39 | > 50000 | Cc1cc(-c2[nH]c3ccc(-c4cc5c(s4)CN(C(=O)CS(C)(=O)=O)CC5)cc3c2C(C)C)cc(C)n1 [Example 353, 1-(2-(2-(2,6-dimethylpyridin-4-yl)-3-isopropyl-1H-indol-5-yl)-4,7-dihydrothieno[2,3-c]pyridin-6(5H)-yl)-2-(methylsulfonyl)ethan-1-one] |
| 48 | 2.8 | 2100 | Cc1cc(-c2[nH]c3ccc(-c4cn5c(n4)CNCC5)cc3c2C(C)C)cc(C)n1 [Example 354, 2-(2-(2,6-dimethylpyridin-4-yl)-3-isopropyl-1H-indol-5-yl)-5,6,7,8-tetrahydroimidazo[1,2-a]pyrazine] |
| 57 | 176 | 25200 | Cc1cc(-c2[nH]c3ccc(-c4ccn5ncnc5c4C)cc3c2C(C)C)cc(C)n1 [Example 355, 7-(2-(2,6-dimethylpyridin-4-yl)-3-isopropyl-1H-indol-5-yl)-8-methyl-[1,2,4]triazolo[1,5-a]pyridine] |
| 10 | 4.6 | 952 | CNCC(=O)Nc1cnc(-c2ccc3[nH]c(-c4cc(C)nc(C)c4)c(C(C)C)c3c2)cn1 [Example 356, N-(5-(2-(2,6-dimethylpyridin-4-yl)-3-isopropyl-1H-indol-5-yl)pyrazin-2-yl)-2-(methylamino)acetamide] |
| 4.4 | 1.4 | 205 | Cc1cc(-c2[nH]c3ccc(-c4nnc(C5CCCN(C(C)C)C5)[nH]4)cc3c2C(C)C)cc(C)n1 (stereo not drawn) [Example 357, 2-(2,6-dimethylpyridin-4-yl)-3-isopropyl-5-(5-(1-isopropylpiperidin-3-yl)-4H-1,2,4-triazol-3-yl)-1H-indole] |
| 4.9 | 1.6 | 157 | Cc1cc(-c2[nH]c3ccc(-c4nnc(C5CCCN(C(C)C)C5)[nH]4)cc3c2C(C)C)cc(C)n1 (stereo not drawn) [Example 358, 2-(2,6-dimethylpyridin-4-yl)-3-isopropyl-5-(5-(1-isopropylpiperidin-3-yl)-4H-1,2,4-triazol-3-yl)-1H-indole] |
| 17 | 7.5 | 14400 | Cc1cc(-c2[nH]c3ccc(-c4cnc(N)cn4)cc3c2C(C)C)ccn1 [Example 359, 5-(3-isopropyl-2-(2-methylpyridin-4-yl)-1H-indol-5-yl)pyrazin-2-amine] |
| 58 | 16 | 27000 | Cc1cc(-c2[nH]c3ccc(-c4ccc(N)nn4)cc3c2C(C)C)ccn1 [Example 360, 6-(3-isopropyl-2-(2-methylpyridin-4-yl)-1H-indol-5-yl)pyridazin-3-amine] |
| 6 | 1.5 | 490 | Cc1cc(-c2[nH]c3ccc(-c4cc5c(s4)CN(C)CC5)cc3c2C(C)C)cc(C)n1 [Example 361, 2-(2-(2,6-dimethylpyridin-4-yl)-3-isopropyl-1H-indol-5-yl)-6-methyl-4,5,6,7-tetrahydrothieno[2,3-c]pyridine] |
| 6.4 | 9 | > 50000 | CC(=O)N1CCc2nc(-c3ccc4[nH]c(-c5cc(C)nc(C)c5)c(C(C)C)c4c3)sc2C1 [Example 362, 1-(2-(2-(2,6-dimethylpyridin-4-yl)-3-isopropyl-1H-indol-5-yl)-6,7-dihydrothiazolo[5,4-c]pyridin-5(4H)-yl)ethan-1-one] |
| 0.8 | 2.3 | 151 | Cc1cc(-c2[nH]c3ccc(-c4nc5c(s4)CN(C(=O)CN(C)C)CC5)cc3c2C(C)C)cc(C)n1 [Example 363, 2-(dimethylamino)-1-(2-(2-(2,6-dimethylpyridin-4-yl)-3-isopropyl-1H-indol-5-yl)-6,7-dihydrothiazolo[5,4-c]pyridin-5(4H)-yl)ethan-1-one] |
| 20 | 11 | > 50000 | Cc1cc(-c2[nH]c3ccc(-c4nc5c(s4)CN(C(=O)C4CC(=O)N(C)C4)CC5)cc3c2C(C)C)cc(C)n1 (stereo not drawn) [Example 364, 4-(2-(2-(2,6-dimethylpyridin-4-yl)-3-isopropyl-1H-indol-5-yl)-4,5,6,7-tetrahydrothiazolo[5,4-c]pyridine-5-carbonyl)-1-methylpyrrolidin-2-one] |
| 7.3 | 1.6 | 1290 | Cc1cc(-c2[nH]c3ccc(-c4cnc(NC(=O)CN(C)C)cn4)cc3c2C(C)C)ccn1 [Example 365, 2-(dimethylamino)-N-(5-(3-isopropyl-2-(2-methylpyridin-4-yl)-1H-indol-5-yl)pyrazin-2-yl)acetamide] |
| 63 | 84 | 11500 | Cc1cc(-c2[nH]c3ccc(-c4cc(F)c5nc(C)cn5c4)cc3c2C(C)C)cc(C)n1 [Example 366, 6-(2-(2,6-dimethylpyridin-4-yl)-3-isopropyl-1H-indol-5-yl)-8-fluoro-2-methylimidazo[1,2-a]pyridine] |
| 0.37 | 0.6 | 673 | Cc1cc(-c2[nH]c3ccc(-c4nnc(C5CCN(C)CC5)o4)cc3c2C(C)C)cn2ncnc12 [Example 367, 2-(3-isopropyl-2-(8-methyl-[1,2,4]triazolo[1,5-a]pyridin-6-yl)-1H-indol-5-yl)-5-(1-methylpiperidin-4-yl)-1,3,4-oxadiazole] |
| 2110 | 64 | 2300 | COc1ccc(-c2[nH]c3ccc(-c4cccc(N5CCN(C)CC5)c4)cc3c2C(C)C)cc1OC [Example 369, 2-(3,4-dimethoxyphenyl)-3-isopropyl-5-(3-(4-methylpiperazin-1-yl)phenyl)-1H-indole] |
| 3920 | 93 | 4840 | COc1ccc(-c2[nH]c3ccc(-c4cccc(N5CCN(C(C)C)CC5)c4)cc3c2C(C)C)cc1OC [Example 370, 2-(3,4-dimethoxyphenyl)-3-isopropyl-5-(3-(4-isopropylpiperazin-1-yl)phenyl)-1H-indole] |
| 894 | 176 | 10200 | COc1ccc(-c2[nH]c3ccc(-c4cccc(N5CCN(CC(C)C)CC5)c4)cc3c2C(C)C)cc1OC [Example 371, 2-(3,4-dimethoxyphenyl)-5-(3-(4-isobutylpiperazin-1-yl)phenyl)-3-isopropyl-1H-indole] |
| 1860 | 20100 | 4360 | COc1ccc(-c2[nH]c3ccc(-c4ccc(-c5cccc(CN6CCN(C)CC6)c5)cc4)cc3c2C(C)C)cc1OC [Example 373, 2-(3,4-dimethoxyphenyl)-3-isopropyl-5-(3′-((4-methylpiperazin-1-yl)methyl)-[1,1′-biphenyl]-4-yl)-1H-indole] |
| 428 | 317 | > 50000 | COc1ccc(-c2[nH]c3ccc(-c4ccc(-c5cccc(CN(C)C)c5)cc4)cc3c2C(C)C)cc1OC [Example 374, 1-(4′-(2-(3,4-dimethoxyphenyl)-3-isopropyl-1H-indol-5-yl)-[1,1′-biphenyl]-3-yl)-N,N-dimethylmethanamine] |
| > 50000 | 12400 | 291 | COc1ccc(-c2[nH]c3ccc(-c4ccc(C5=CCN(C6CCN(CC(C)C)CC6)CC5)cc4)cc3c2C)cc1OC [Example 375, 2-(3,4-dimethoxyphenyl)-5-(4-(1-(1-isobutylpiperidin-4-yl)-1,2,3,6-tetrahydropyridin-4-yl)phenyl)-3-methyl-1H-indole] |
